Assay type in all cases: functional
Assay [1] relates to Bacillus subtilis. The assay can be described thus: Antibacterial activity against Bacillus subtilis MTCC 121 at 300 ug/ml by cup plate method. As to conditions: read-out: DIZ.
In assay [2] the test system is Escherichia coli. The assay can be described thus: Antibacterial activity against Escherichia coli MTCC 739 at 200 ug/ml by cup-plate method. The settings on record: for zone of inhibition at 200 µg/mL: read-out: DIZ.
Assay [3] deals with Bacillus subtilis. The experiment in a line: Antibacterial activity against Bacillus subtilis MTCC 121 at 50 ug/ml by cup plate method. The settings on record: read-out: DIZ.
For assay [4], the system named is Candida albicans. The assay can be described thus: Antifungal activity against Candida albicans MTCC 227 at 100 ug/ml by cup-plate method. As to conditions: for zone of inhibition at 100 µg/mL: read-out: DIZ.
Assay [5] concerns Escherichia coli. The assay can be described thus: Antibacterial activity against Escherichia coli MTCC 739 at 50 ug/ml by cup-plate method. As to conditions: for zone of inhibition at 50 µg/mL: read-out: DIZ.
Assay [6] concerns Bacillus subtilis. The assay can be described thus: Antibacterial activity against Bacillus subtilis MTCC 121 at 200 ug/ml by cup plate method. As to conditions: read-out: DIZ.
The subject of assay [7] is Candida albicans. The experiment in a line: Antifungal activity against Candida albicans MTCC 227 at 300 ug/ml by cup-plate method. The settings on record: for zone of inhibition at 300 µg/mL: read-out: DIZ.
Assay [8] has as its system Escherichia coli. The experiment in a line: Antibacterial activity against Escherichia coli MTCC 739 at 100 ug/ml by cup-plate method. The settings on record: for zone of inhibition at 100 µg/mL: read-out: DIZ.
The subject of assay [9] is Pseudomonas aeruginosa. The assay can be described thus: Antibacterial activity against Pseudomonas aeruginosa MTCC 2453 at 300 ug/ml by cup-plate method. As to conditions: for zone of inhibition at 300 µg/mL: read-out: DIZ.
Assay [10] deals with Pseudomonas aeruginosa. The experiment in a line: Antibacterial activity against Pseudomonas aeruginosa MTCC 2453 at 50 ug/ml by cup-plate method. The settings on record: for zone of inhibition at 50 µg/mL: read-out: DIZ.
Assay [11] relates to Escherichia coli. The experiment in a line: Antibacterial activity against Escherichia coli MTCC 739 at 300 ug/ml by cup-plate method. The settings on record: for zone of inhibition at 300 µg/mL: read-out: DIZ.
Assay [12] relates to Staphylococcus aureus. The assay can be described thus: Antibacterial activity against Staphylococcus aureus MTCC 96 at 50 ug/ml by cup-plate method. The settings on record: read-out: DIZ.
The subject of assay [13] is Candida albicans. The assay can be described thus: Antifungal activity against Candida albicans MTCC 227 at 50 ug/ml by cup-plate method. The settings on record: for zone of inhibition at 50 µg/mL: read-out: DIZ.
For assay [14], the system named is Staphylococcus aureus. The assay can be described thus: Antibacterial activity against Staphylococcus aureus MTCC 96 at 100 ug/ml by cup-plate method. The settings on record: read-out: DIZ.
Assay [15] has as its system Staphylococcus aureus. The experiment in a line: Antibacterial activity against Staphylococcus aureus MTCC 96 at 200 ug/ml by cup-plate method. The settings on record: read-out: DIZ.
For assay [16], the system named is Pseudomonas aeruginosa. The experiment in a line: Antibacterial activity against Pseudomonas aeruginosa MTCC 2453 at 100 ug/ml by cup-plate method. The settings on record: for zone of inhibition at 100 µg/mL: read-out: DIZ.
The test system of assay [17] is Pseudomonas aeruginosa. The assay can be described thus: Antibacterial activity against Pseudomonas aeruginosa MTCC 2453 at 200 ug/ml by cup-plate method. As to conditions: for zone of inhibition at 200 µg/mL: read-out: DIZ.
Assay [18] deals with Staphylococcus aureus. The experiment in a line: Antibacterial activity against Staphylococcus aureus MTCC 96 at 300 ug/ml by cup-plate method. The settings on record: read-out: DIZ.
The test system of assay [19] is Bacillus subtilis. The experiment in a line: Antibacterial activity against Bacillus subtilis MTCC 121 at 100 ug/ml by cup plate method. The settings on record: read-out: DIZ.
Assay [20] deals with Candida albicans. The experiment in a line: Antifungal activity against Candida albicans MTCC 227 at 200 ug/ml by cup-plate method. As to conditions: for zone of inhibition at 200 µg/mL: read-out: DIZ.

Calls of active or inactive are those of the source. The calls are words filed in the database; no cut-off is given here.

As for `COc1cc(/C=C2\S/C(=N/c3ccc([N+](=O)[O-])cc3)NC2=O)ccc1O`, the zone of inhibition at 300 µg/mL with Bacillus subtilis [1] came out at 15 mm; in the assay on Pseudomonas aeruginosa [9], 17 mm; in the assay on Escherichia coli [11], 13 mm; in the assay with Staphylococcus aureus [18], 17 mm. Also, the zone of inhibition at 200 µg/mL with Escherichia coli [2] is 12 mm; in the assay with Bacillus subtilis [6], 14 mm; in the assay on Staphylococcus aureus [15], 16 mm; with Pseudomonas aeruginosa [17] it was 15 mm. For the same compound, the zone of inhibition at 50 µg/mL came out at 11 mm in the assay with Bacillus subtilis [3], 11 mm in the assay on Escherichia coli [5], 14 mm with Pseudomonas aeruginosa [10] and 14 mm with Staphylococcus aureus [12]. The “diameter of the inhibition zone (DIZ)” value in the assay with Candida albicans [4], in the assay with Candida albicans [7], in the assay with Candida albicans [13] and with Candida albicans [20] was “inactive” each time. In addition, the zone of inhibition at 100 µg/mL in the assay with Escherichia coli [8] was determined as 12 mm; in the assay with Staphylococcus aureus [14], 15 mm; in the assay with Pseudomonas aeruginosa [16] it was 15 mm; in the assay with Bacillus subtilis [19], 12 mm.

Consider `O=C1N/C(=N\c2ccccc2[N+](=O)[O-])S/C1=C\c1cccc([N+](=O)[O-])c1`, for which the zone of inhibition at 300 µg/mL in the assay with Bacillus subtilis [1] worked out at 22 mm; with Candida albicans [7], 16 mm; with Pseudomonas aeruginosa [9], 16 mm; with Escherichia coli [11], 15 mm; with Staphylococcus aureus [18], 16 mm. The zone of inhibition at 200 µg/mL in the assay with Escherichia coli [2] was found to be 13 mm; in the assay on Bacillus subtilis [6], 20 mm; in the assay on Staphylococcus aureus [15], 14 mm; with Pseudomonas aeruginosa [17], 15 mm; in the assay with Candida albicans [20], 14 mm. Also, the zone of inhibition at 50 µg/mL with Bacillus subtilis [3] is 7 mm; in the assay on Escherichia coli [5], 10 mm; in the assay on Pseudomonas aeruginosa [10] it was 10 mm; with Staphylococcus aureus [12] it was 8 mm; in the assay on Candida albicans [13] it was 10 mm. For the same compound, the zone of inhibition at 100 µg/mL worked out at 12 mm with Candida albicans [4]; 8 mm with Escherichia coli [8]; 10 mm in the assay on Staphylococcus aureus [14]; 11 mm with Pseudomonas aeruginosa [16]; 15 mm with Bacillus subtilis [19].

As to `O=C1N/C(=N\c2ccc([N+](=O)[O-])cc2)S/C1=C\c1ccc(Cl)cc1`, the zone of inhibition at 300 µg/mL in the assay with Bacillus subtilis [1] is 18 mm; with Pseudomonas aeruginosa [9], 14 mm; with Escherichia coli [11] it was 18 mm; in the assay on Staphylococcus aureus [18], 17 mm. In addition, the zone of inhibition at 200 µg/mL came to 16 mm in the assay on Escherichia coli [2], 17 mm with Bacillus subtilis [6], 15 mm in the assay on Staphylococcus aureus [15] and 13 mm in the assay with Pseudomonas aeruginosa [17]. Moreover, the zone of inhibition at 50 µg/mL was 15 mm in the assay with Bacillus subtilis [3], 15 mm in the assay with Escherichia coli [5], 11 mm with Pseudomonas aeruginosa [10] and 13 mm in the assay on Staphylococcus aureus [12]. The “diameter of the inhibition zone (DIZ)” value with Candida albicans [4], in the assay with Candida albicans [7], in the assay on Candida albicans [13] and with Candida albicans [20] was “inactive” in each case. Also, the zone of inhibition at 100 µg/mL came to 16 mm in the assay on Escherichia coli [8], 14 mm with Staphylococcus aureus [14], 12 mm in the assay on Pseudomonas aeruginosa [16] and 16 mm in the assay on Bacillus subtilis [19].

As for `O=C1N/C(=N\c2ccc([N+](=O)[O-])cc2)S/C1=C\c1ccccc1Cl`, the zone of inhibition at 300 µg/mL in the assay on Bacillus subtilis [1] is 17 mm; in the assay with Pseudomonas aeruginosa [9], 17 mm; in the assay with Escherichia coli [11] it was 16 mm; in the assay on Staphylococcus aureus [18], 19 mm. The zone of inhibition at 200 µg/mL with Escherichia coli [2] amounted to 15 mm; in the assay on Bacillus subtilis [6] it was 15 mm; with Staphylococcus aureus [15], 17 mm; in the assay on Pseudomonas aeruginosa [17], 16 mm. Besides, the zone of inhibition at 50 µg/mL in the assay with Bacillus subtilis [3] was determined as 13 mm; in the assay on Escherichia coli [5], 13 mm; in the assay on Pseudomonas aeruginosa [10] it was 13 mm; in the assay on Staphylococcus aureus [12], 15 mm. For the same compound, the “diameter of the inhibition zone (DIZ)” value in the assay with Candida albicans [4], in the assay with Candida albicans [7], in the assay with Candida albicans [13] and in the assay on Candida albicans [20] was “inactive” each time. Further, the zone of inhibition at 100 µg/mL in the assay with Escherichia coli [8] was found to be 14 mm; in the assay on Staphylococcus aureus [14], 16 mm; with Pseudomonas aeruginosa [16], 14 mm; in the assay on Bacillus subtilis [19] it was 14 mm.

`O=C1N/C(=N\c2ccccc2[N+](=O)[O-])S/C1=C\c1ccccc1Cl`: the zone of inhibition at 300 µg/mL was 18 mm with Bacillus subtilis [1]; 19 mm in the assay on Candida albicans [7]; 15 mm in the assay on Pseudomonas aeruginosa [9]; 12 mm with Escherichia coli [11]; 15 mm in the assay with Staphylococcus aureus [18]. In addition, the zone of inhibition at 200 µg/mL is 10 mm in the assay on Escherichia coli [2]; 15 mm with Bacillus subtilis [6]; 14 mm with Staphylococcus aureus [15]; 12 mm in the assay on Pseudomonas aeruginosa [17]; 18 mm in the assay on Candida albicans [20]. Further, the zone of inhibition at 50 µg/mL in the assay on Bacillus subtilis [3] came to 11 mm; with Escherichia coli [5], 9 mm; in the assay on Pseudomonas aeruginosa [10], 8 mm; in the assay on Staphylococcus aureus [12], 11 mm; in the assay with Candida albicans [13] it was 10 mm. Besides, the zone of inhibition at 100 µg/mL with Candida albicans [4] is 16 mm; in the assay with Escherichia coli [8], 10 mm; in the assay on Staphylococcus aureus [14] it was 12 mm; with Pseudomonas aeruginosa [16], 10 mm; in the assay with Bacillus subtilis [19], 13 mm.

Turning to `COc1cc(/C=C2\S/C(=N/c3ccccc3[N+](=O)[O-])NC2=O)ccc1O`, the zone of inhibition at 300 µg/mL in the assay on Bacillus subtilis [1] stood at 12 mm; in the assay with Staphylococcus aureus [18] it was 8 mm. Further, the “diameter of the inhibition zone (DIZ)” value in the assay with Escherichia coli [2], in the assay with Candida albicans [4], with Escherichia coli [5], with Candida albicans [7], with Escherichia coli [8] and in the assay on Pseudomonas aeruginosa [9] was “inactive” each time. Besides, the “diameter of the inhibition zone (DIZ)” value in the assay on Pseudomonas aeruginosa [10], in the assay on Escherichia coli [11], with Candida albicans [13], in the assay on Pseudomonas aeruginosa [16], in the assay on Pseudomonas aeruginosa [17] and with Candida albicans [20] was “inactive” each time. Further, the results for the zone of inhibition at 50 µg/mL in the assay on Bacillus subtilis [3] and with Staphylococcus aureus [12] were 8 mm and 7 mm, respectively. Also, the zone of inhibition at 200 µg/mL is 10 mm in the assay with Bacillus subtilis [6] and 8 mm in the assay on Staphylococcus aureus [15]. Further, the zone of inhibition at 100 µg/mL with Staphylococcus aureus [14] and in the assay with Bacillus subtilis [19] was 8 mm each time.

In the case of `O=C1N/C(=N\c2ccccc2[N+](=O)[O-])S/C1=C\c1ccc(O)cc1`, the zone of inhibition at 300 µg/mL in the assay on Bacillus subtilis [1] and with Staphylococcus aureus [18] was 11 mm each time. Besides, the “diameter of the inhibition zone (DIZ)” value in the assay on Escherichia coli [2], with Candida albicans [4], with Escherichia coli [5], in the assay with Candida albicans [7], with Escherichia coli [8] and in the assay on Pseudomonas aeruginosa [9] was “inactive” in each case. Besides, the “diameter of the inhibition zone (DIZ)” value with Pseudomonas aeruginosa [10], with Escherichia coli [11], with Candida albicans [13], in the assay with Pseudomonas aeruginosa [16], with Pseudomonas aeruginosa [17] and in the assay on Candida albicans [20] was “inactive” in each case. Further, the zone of inhibition at 50 µg/mL in the assay on Bacillus subtilis [3] and in the assay on Staphylococcus aureus [12] was 10 mm throughout. For the same compound, the zone of inhibition at 200 µg/mL in the assay with Bacillus subtilis [6] and with Staphylococcus aureus [15] was 10 mm throughout. In addition, the zone of inhibition at 100 µg/mL in the assay on Staphylococcus aureus [14] and in the assay with Bacillus subtilis [19] was 10 mm throughout.

The record behind these values is ChEMBL document CHEMBL3044740, “Syntheses and evaluation of 2,5-disubstituted 4-thiazolidinone analogues as antimicrobial agents” (2012).
